From article PMC6220303 (EMBO Molecular Medicine, 2018)
Values joined by “and” are separate entries in the source; they are usually repeats but may differ in a detail not shown here. Equal values may be shown once. Read-outs that look alike come from different tables or passages of the source.

Legend:
[1] = logD determination; format: physicochemical; conditions: partition coefficient octanol/buffer pH 6.8
Procedure: Cellular Aβ release assays were done in CHO cells stably transfected with human wild‐type and human APP were done as described (Neumann et al, 2015). Determinations of logD, pKa, and binding to brain homogenates were done internally at Novartis, Basel. Plasma protein binding was determined by equilibrium dialysis using diluted plasma from the corresponding species. MDR‐1‐MDCK cells were obtained from Prof. A. Berns, Netherlands Cancer Institute, Amsterdam NL, and bi‐directional transport measurements were done as described (Rueeger et al, 2011). Receptor binding assays were done against an internal receptor panel and externally at Ricerca Biosciences, Peitou, Taiwan. In vitro binding and cellular patch clamp assays for hERG were done at Preclinical Safety, Novartis, Basel.

[2] = system: dogs; experiment: Cardiovascular safety pharmacology in dogs; format: in vivo, dog
[3] = system: Aβ40 in rat brain tissue; experiment: Aβ40 in rat brain and CSF after single oral dose; format: in vivo
Procedure: Therefore, we measured Aβ40 in rat brain tissue 4 h after oral administration over a range of doses. […] In addition, the effect‐over‐time curves for brain and CSF almost completely superimposed, showing that Aβ pharmacodynamics in CSF mirrors very well that in brain tissue.
Experiments were carried out in accordance with the guidelines of the Swiss Federal and Cantonal veterinary offices for care and use of laboratory animals or the Canadian Council on Animal Care (Ottawa, Canada), and the ARRIVE guidelines. Studies described in this report were approved by the Swiss Cantonal Veterinary Authority of Basel City, Switzerland, and performed according to animal license numbers BS‐2063, BS‐2077, and BS‐1094. Methods employed in PK/PD studies in rats and dogs are described (Neumann et al, 2015).
Electrochemiluminescence immunoassays (Mesoscale Diagnostics, Rockville, MD, USA) were used to determine Aβ38, Aβ40, Aβ42, sAPPα, and sAPPβ. For studies in normal mice and rats, the endogenous Aβ40 was extracted from the brain homogenate with 1% Triton X‐100, and the 4G8‐based assay kit was used for quantification according to the manufacturer's instructions. CSF was collected from the cisterna magna and also analyzed using the 4G8 kit. For studies in dogs, CSF was collected via a ventricular port, and the 6E10‐based Mesoscale Diagnostics kit for Aβ was used. For studies in APP23 mice, Aβ40 and Aβ42 were determined after extraction with 70% formic acid and subsequent neutralization.

[4] = system: Aβ40 in APOE4‐TR mouse forebrain; experiment: Forebrain Aβ40 in APOE4-TR mice; format: in vivo; conditions: highest dose of 17 mg/kg (30 μmol/kg), 4 h after dosing
Procedure: Data were analyzed with one way ANOVA and Dunnett's multiple comparison test. • B Distribution of APOE4 genotypes in the Phase IIa study versus their baseline Aβ42/40 ratios. The dashed line at Aβ42/40 ratio of 0.09 represents a cutoff, which separates a normal ratio from an abnormally low ratio. • C Comparison of CSF Aβ40 reduction in APOE4 non‐carriers and APOE4 carriers (mean ± SD). • D Comparison of CSFAβ40 reduction in participants with Aβ42/40 ≥ 0.09 and Aβ42/40 < 0.09 (mean ± SD). • E Comparison of Aβ42/40 ratio at baseline and at day 91 for all participants in the placebo, 35 mg, and 85‐mg dose group (mean ± SD, n = 25/group). • F Change of Aβ42/40 ratio for all participants with Aβ42/40 ≤ 0.09 at baseline; bars represent mean ± SD. […] Data were analyzed with one way ANOVA and Dunnett's multiple comparison test. […]
Electrochemiluminescence immunoassays (Mesoscale Diagnostics, Rockville, MD, USA) were used to determine Aβ38, Aβ40, Aβ42, sAPPα, and sAPPβ. For studies in normal mice and rats, the endogenous Aβ40 was extracted from the brain homogenate with 1% Triton X‐100, and the 4G8‐based assay kit was used for quantification according to the manufacturer's instructions. CSF was collected from the cisterna magna and also analyzed using the 4G8 kit. […] For studies in APP23 mice, Aβ40 and Aβ42 were determined after extraction with 70% formic acid and subsequent neutralization.

[5] = clinical; format: in vivo, human; conditions: for CSF Cmax: ≥ 60 years
Procedure: The lower limit of quantification (LLOQ) was 1 ng/ml in plasma and 2 ng/ml in urine and CSF, except for the 3‐month study where the method for CSF was more sensitive (LLOQ 0.1 ng/ml). Plasma PK parameters were calculated using actual recorded sampling times and non‐compartmental methods with Phoenix WinNonlin version 6.4 (Certara, Inc., Princeton, NJ, USA). […]

[6] = system: healthy participants ≥ 60 years; experiment: Adverse events after once-daily dosing over two weeks (Appendix Table S7); format: in vivo, human

With C[C@@]1(c2nc(NC(=O)c3ncc(C(F)(F)F)cc3Cl)ccc2F)CO[C@@](C)(C(F)(F)F)C(N)=N1 [CNP520] the logD [1] was 3.5, the “free plasma C max” value ([2]; 200 mg/kg) was 0.23 µM and the “effect on heart rate, ECG morphology, blood pressure” value ([2]; doses up to 200 mg/kg, and repeat dose toxicology studies (2, 4, 13, 39 weeks)) was “no effect on heart rate, ECG morphology, or blood pressure”. For the same molecule, the “Aβ40 reduction in rat brain and CSF” value ([3]; 24 h after single oral 30 μmol/kg (15.4 mg/kg) dose) was ~ 50%, the ED50 ([3]; Rattus norvegicus, read-out: ED50, oral dose required for 50% lowering of rat brain Aβ40, 4 h after oral administration) was 2.4 ± 0.31 mg/kg and the “reduction of Aβ40 in rat brain tissue compared to untreated controls” value ([3]; highest dose, 4 h after oral administration, mean ± SD) was 89.3 ± 4.5%. The “reduction in Aβ40” value [4] was 77%, the “CSF conc 24h after dose Day 14” value ([5]; 10 mg q.d., 2 weeks, LLOQ 2 ng/ml in CSF) was “< LLOQ” and the concentration at 24 h ([5]; both sexes, human, CSF, oral, 2 mg q.d., 3 month study, mean (CV %), read-out: CSF conc 24h after dose Day 91) was 0.305 ng/mL. It also gave a concentration at 24 h ([5]; both sexes, human, CSF, oral, 10 mg q.d., 3 month study, mean (CV %), read-out: CSF conc 24h after dose Day 91) of 1.44 ng/mL, a concentration at 24 h ([5]; both sexes, human, CSF, oral, 30 mg q.d., 2 weeks, mean (CV %), read-out: CSF conc 24h after dose Day 14) of 3.33 ng/mL and a concentration at 24 h ([5]; both sexes, human, CSF, oral, 35 mg q.d., 3 month study, mean (CV %), read-out: CSF conc 24h after dose Day 91) of 4.52 ng/mL. The concentration at 24 h ([5]; both sexes, human, CSF, oral, 85 mg q.d., 3 month study, mean (CV %), read-out: CSF conc 24h after dose Day 91) was 10.4 ng/mL, the concentration at 24 h ([5]; both sexes, human, CSF, oral, 90 mg q.d., 2 weeks, mean (CV %), read-out: CSF conc 24h after dose Day 14) was 9.48 ng/mL and the concentration at 24 h ([5]; both sexes, human, CSF, oral, 300 mg q.d., 2 weeks, mean (CV %), read-out: CSF conc 24h after dose Day 14) was 29.8 ng/mL. The Cmax ([5]; both sexes, human, CSF, oral, single dose of 750 mg, read-out: CSF mean C max) was 0.0397 µM, the “CSF Cmax” value ([5]; single dose 10 mg, LLOQ 2 ng/ml in CSF) was “< LLOQ” and the “CSF Cmax” value ([5]; single dose 90 mg, mean (CV %)) was 3.33 ( 65.2 ) ng/ml. The “CSF Cmax” value ([5]; single dose 300 mg, mean (CV %)) was 10.5 (49.1) ng/ml, the “CSF Cmax” value ([5]; single dose 750 mg, mean (CV %)) was 20.4 (44.8) ng/ml and 20.4 ng/ml and the “AE incidence: Ear and labyrinth disorders” value ([6]; 10 mg once daily, N = 9) was 0 (0.0) n (%). The “AE incidence: Eye disorders” value ([6]; 10 mg once daily, N = 9) was 1 (11.1) n (%), the “AE incidence: Gastrointestinal disorders” value ([6]; 10 mg once daily, N = 9) was 3 (33.3) n (%) and the “AE incidence: General disorders and administration site conditions” value ([6]; 10 mg once daily, N = 9) was 0 (0.0) n (%). The “AE incidence: Infections and infestations” value ([6]; 10 mg once daily, N = 9) was 2 (22.2) n (%), the “AE incidence: Metabolism and nutrition disorders” value ([6]; 10 mg once daily, N = 9) was 0 (0.0) n (%) and the “AE incidence: Nervous system disorders” value ([6]; 10 mg once daily, N = 9) was 4 (44.4) n (%). The “AE incidence: Psychiatric disorders” value ([6]; 10 mg once daily, N = 9) was 1 (11.1) n (%), the “AE incidence: Renal and urinary disorders” value ([6]; 10 mg once daily, N = 9) was 0 (0.0) n (%) and the “AE incidence: Skin and subcutaneous tissue disorders” value ([6]; 10 mg once daily, N = 9) was 0 (0.0) n (%). For the same molecule, the “AE incidence: Ear and labyrinth disorders” value ([6]; 30 mg once daily, N = 9) was 1 (11.1) n (%), the “AE incidence: Eye disorders” value ([6]; 30 mg once daily, N = 9) was 0 (0.0) n (%) and the “AE incidence: Gastrointestinal disorders” value ([6]; 30 mg once daily, N = 9) was 2 (22.2) n (%). The “AE incidence: General disorders and administration site conditions” value ([6]; 30 mg once daily, N = 9) was 1 (11.1) n (%), the “AE incidence: Infections and infestations” value ([6]; 30 mg once daily, N = 9) was 2 (22.2) n (%) and the “AE incidence: Metabolism and nutrition disorders” value ([6]; 30 mg once daily, N = 9) was 0 (0.0) n (%). For the same molecule, the “AE incidence: Nervous system disorders” value ([6]; 30 mg once daily, N = 9) was 0 (0.0) n (%), the “AE incidence: Psychiatric disorders” value ([6]; 30 mg once daily, N = 9) was 0 (0.0) n (%) and the “AE incidence: Respiratory, thoracic and mediastinal disorders” value (“AE incidence: Respiratory” below) ([6]; 30 mg once daily, N = 9) was 0 (0.0) n (%). The “AE incidence: Skin and subcutaneous tissue disorders” value ([6]; 30 mg once daily, N = 9) was 0 (0.0) n (%), the “Participants with any AE(s)” value ([6]; 30 mg once daily, N = 9) was 5 (55.6) n (%) and the “AE incidence: Ear and labyrinth disorders” value ([6]; 90 mg once daily, N = 9) was 0 (0.0) n (%). For the same molecule, the “AE incidence: Eye disorders” value ([6]; 90 mg once daily, N = 9) was 1 (11.1) n (%), the “AE incidence: Gastrointestinal disorders” value ([6]; 90 mg once daily, N = 9) was 3 (33.3) n (%) and the “AE incidence: General disorders and administration site conditions” value ([6]; 90 mg once daily, N = 9) was 0 (0.0) n (%). The “AE incidence: Infections and infestations” value ([6]; 90 mg once daily, N = 9) was 2 (22.2) n (%), the “AE incidence: Metabolism and nutrition disorders” value ([6]; 90 mg once daily, N = 9) was 0 (0.0) n (%) and the “AE incidence: Nervous system disorders” value ([6]; 90 mg once daily, N = 9) was 1 (11.1) n (%). For the same molecule, the “AE incidence: Psychiatric disorders” value ([6]; 90 mg once daily, N = 9) was 0 (0.0) n (%), the “AE incidence: Renal and urinary disorders” value ([6]; 90 mg once daily, N = 9) was 1 (11.1) n (%) and the “AE incidence: Respiratory” value ([6]; 90 mg once daily, N = 9) was 1 (11.1) n (%). The “AE incidence: Skin and subcutaneous tissue disorders” value ([6]; 90 mg once daily, N = 9) was 0 (0.0) n (%), the “Participants with any AE(s)” value ([6]; 90 mg once daily, N = 9) was 6 (66.7) n (%) and the “AE incidence: Eye disorders” value ([6]; 300 mg once daily, N = 8) was 0 (0.0) n (%). For the same molecule, the “AE incidence: Gastrointestinal disorders” value ([6]; 300 mg once daily, N = 8) was 2 (25.0) n (%), the “AE incidence: General disorders and administration site conditions” value ([6]; 300 mg once daily, N = 8) was 1 (12.5) n (%) and the “AE incidence: Infections and infestations” value ([6]; 300 mg once daily, N = 8) was 0 (0.0) n (%). The “AE incidence: Metabolism and nutrition disorders” value ([6]; 300 mg once daily, N = 8) was 2 (25.0) n (%), the “AE incidence: Nervous system disorders” value ([6]; 300 mg once daily, N = 8) was 3 (37.5) n (%) and the “AE incidence: Psychiatric disorders” value ([6]; 300 mg once daily, N = 8) was 0 (0.0) n (%). For the same molecule, the “AE incidence: Renal and urinary disorders” value ([6]; 300 mg once daily, N = 8) was 1 (12.5) n (%), the “AE incidence: Respiratory” value ([6]; 300 mg once daily, N = 8) was 0 (0.0) n (%) and the “AE incidence: Skin and subcutaneous tissue disorders” value ([6]; 300 mg once daily, N = 8) was 2 (25.0) n (%). For the same molecule, the “Participants with any AE(s)” value ([6]; 300 mg once daily, N = 8) was 6 (75.0) n (%).
